A word on the solubility: it is the dissolved amount per volume that the medium holds.

“Also recorded” adds a separate entry of the source. Where a name gives a salt, the structure may show the parent alone. Read-outs that look alike come from different tables or passages of the source. Where only a bound is given, the exact number is not on record here.

What all share (assay type): physicochemical
Series [1] is described as follows: Aqueous solubility of Compound A salts (salt assessment). How it is done: The mono-mesylate, di-mesylate, mono-hydrochloride, di-hydrochloride and fumarate salts of Compound A were assessed for compliance with the following properties identified by the inventors as being relevant to pharmaceutical suitability:
Aqueous solubility was determined by weighing out ˜3 mg of the salt form into a clean HPLC vial, adding HPLC grade water, shaking, vortexing, and/or sonicating to mix and aid dissolution as necessary. Once fully dissolved (clear solution) solubility is calculated based on the amount of water added. HPLC purity and DVS can be determined using methods described herein or methods known in the art. Processability is based on solubility of the salt form in certain excipients. Automated elemental analysis can be performed with 10 mg of the Compound A salt, using caffeine as a reference material. CHNX and the stoichiometry of the salt to the Compound A is determined. Dissolution was determined across 4 pH values (2.0, 3.8, 5.3, 7.2) using a Sirius T3 module, SOP 2070 and 2071, with 5 to 10 mg of Compound A salt compressed into a tablet disc.

The nature of series [2]: Dynamic vapour sorption (DVS), hygroscopicity. The following applies: for form change, hydration or dehydration after DVS (XRPD of recovered solids): after sorption/desorption cycles; for DVS uptake (weight increase): 25° C. How it is done: Approximately, 10-20 mg of sample was placed into a mesh vapor sorption balance pan and loaded into a DVS Intrinsic dynamic vapour sorption balance by Surface Measurement Systems. The sample was subjected to a ramping profile from 40-90% relative humidity (RH) at 10% increments, maintaining the sample at each step until a stable weight had been achieved (dm/dt 0.004%, minimum step length 30 minutes, maximum step length 500 minutes) at 25° C. After completion of the sorption cycle, the sample was dried using the same procedure to 0% RH and then a second sorption cycle back to 40% RH. Two cycles were performed. The weight change during the sorption/desorption cycles were plotted, allowing for the hygroscopic nature of the sample to be determined. XRPD analysis was then carried out on any solid retained.

The nature of series [3]: Thermodynamic solubility assessment in biological media (FaSSIF, FeSSIF, FaSSGF), HPLC of mother liquors. Here is the method:
The thermodynamic solubility of Compound A free base, Compound A fumarate Form 1 and Compound A hemi-fumarate Form 3 was assessed in 3 biological media: Fasted State Simulated Intestinal Fluid (FaSSIF); Fed State Simulated Intestinal Fluid (FeSSIF) and Fasted State Simulated Gastric Fluid (FaSSGF).
The following procedure was carried out. Approximately 10 mg of material was weighed into 3×1.5 mL glass vials. 0.02 mL aliquots of appropriate buffer were added to each vial until a final concentration of 10 mg/mL was obtained. The samples were then filtered via centrifugation and the mother liquors analyzed by HPLC.

Series [4] in a line: Stability of Form 1 on storage (appearance, HPLC, water content, XRPD). How it is done: The stability of Form 1 was tested for compliance with the following stability acceptance criteria:
Form 1 was prepared as described in Example X above. The following amounts of Form 1 were weighed into 30 ml HDPE Nalgene containers:
Each container was placed into a small grip-seal bag and incubated at the conditions above.
Visual appearance and purity by HPLC were assessed periodically (at 0, 1, 3, 6, 9, 12, and 24 months). Water content was assessed at 0, 1, 6, and 12 months by Karl Fisher titration and TGA. XRPD spectra were taken at 0, 1, 3 and 6 months.

Series [5] can be described thus: Stability of the crystalline form in organic solvents and on handling (XRPD). Here is the method: XRPD analysis was carried out on a PANalytical X'pert pro with PIXcel detector (128 channels), scanning the samples between 3 and 35° 2θ. The material was gently ground to release any agglomerates and loaded onto a multi-well plate with Kapton or Mylar polymer film to support the sample. The multi-well plate was then placed into the diffractometer and analyzed using Cu K radiation (α1 λ=1.54060 Å; α2=1.54443 Å; β=1.39225 Å; α1:α2 ratio=0.5) running in transmission mode (step size 0.01300 2θ, step time 18.87 s) using 40 kV/40 mA generator settings. Data were visualized and images generated using the HighScore Plus 4.7 desktop application (PANalytical, 2017).
A slurry of Compound A fumarate lyophile is prepared by adding aliquots of solvent to the lyophile until a mobile slurry was observed. Solvents and volumes can be found in Table 1 below. The slurries are temperature cycled with agitation, between ambient (ca. 25° C.) and 40° C. in 4-hour cycles over 72 hours. Post-temperature cycling the samples were filtered via centrifugation. Isolated solids can be analysed by XRPD.

Series [6] is described as follows: 1-week stability study of Form 3 (XRPD and HPLC). How it is done:
The stability of Compound A fumarate Form 3 was assessed under ambient and stressed conditions. The following procedure was carried out. Approximately 20 mg of material was added to 3×1.5 mL glass vials. The vials were then stored under the following conditions: • Ambient light and temperature (closed vial) • 40° C./75% RH (open vial) • 80° C. (closed vial)
After 1 week the samples were collected and analyzed by XRPD and HPLC.

The nature of series [7]: Long term-storage stability of Form 7.
[8] abbreviates: Ambient light and temperature (closed vial).

For `Cc1nn(C)cc1-c1nc2c(N3CCN(Cc4ccc(Cl)cc4)CC3)c(Cl)cnc2[nH]1` [Compound A fumarate, 6-chloro-7-(4-(4-chlorobenzyl)piperazin-1-yl)-2-(1,3-dimethyl-1H-pyrazol-4-yl)-3H-imidazo[4,5-b]pyridine], the solubility in series [1] (HPLC grade water, water, thermodynamic from solid) was in the range of 50 to 4000 µg/mL. Besides, the figures for the “hygroscopicity (in words)” value in series [2] (listed as fumarate salt) and in series [2] (listed as fumarate salt of Compound A) were “unexpectedly low hygroscopicity” and “only slightly hygroscopic”, respectively.

On to `Cc1nn(C)cc1-c1nc2c(N3CCN(Cc4ccc(Cl)cc4)CC3)c(Cl)cnc2[nH]1` [Compound A mesylate, 6-chloro-7-(4-(4-chlorobenzyl)piperazin-1-yl)-2-(1,3-dimethyl-1H-pyrazol-4-yl)-3H-imidazo[4,5-b]pyridine], for which the “solubility compared to the free base of Compound A” value in series [1] (aqueous) is on record as “unexpectedly large increase in solubility”.

`Cc1nn(C)cc1-c1nc2c(N3CCN(Cc4ccc(Cl)cc4)CC3)c(Cl)cnc2[nH]1` [Form 1, 6-chloro-7-(4-(4-chlorobenzyl)piperazin-1-yl)-2-(1,3-dimethyl-1H-pyrazol-4-yl)-3H-imidazo[4,5-b]pyridine]: the “Concentration (thermodynamic solubility)” value was 3400 µg/mL in series [3] (FaSSGF pH 1.6, listed as Compound A fumarate form 1); “insoluble; also recorded: Below LOD” in series [3] (FaSSIF pH 6.5, listed as Compound A fumarate form 1); 300 µg/mL in series [3] (FeSSIF pH 5.0, listed as Compound A fumarate form 1). Also, in series [2], the “form change, hydration or dehydration after DVS (XRPD of recovered solids)” value is listed as “No evidence of form change”. Besides, the “DVS uptake as equivalents of water” value in series [2] (at 90% RH) is listed as 0.07 equivalents of water. For the same compound, the “DVS uptake (weight increase)” value in series [2] (at 90% RH) amounted to 0.7 wt. %. Further, in series [4] (0, 1, 3 and 6 months, ambient and accelerated conditions), the “changes in XRPD / form on storage” value is recorded as “no significant changes; also recorded: no changes in XRPD”. In addition, the “levels of impurities (HPLC)” value in series [4] (5° C., 25° C./60% RH, 40° C./75% RH, 55° C., over 24 months) was at most 0.6%. Besides, the water content entry in series [4] (after 12 months, Karl Fisher titration and TGA) is “below the limit of quantification”. For the same compound, the changes in mass entry in series [4] (storage at 5° C., 25° C./60% RH, 40° C./75% RH, 55° C.) is “negligible”. The “change in form upon exposure to organic solvents (XRPD)” value in series [5] (1-butanol, 1-propanol, 2-ethoxyethanol, acetone, acetonitrile, MEK, THF, 1,1-dimethoxymethane, or DMSO) is given as “no change in form”.

Turning to `Cc1nn(C)cc1-c1nc2c(N3CCN(Cc4ccc(Cl)cc4)CC3)c(Cl)cnc2[nH]1` [Form 2, 6-chloro-7-(4-(4-chlorobenzyl)piperazin-1-yl)-2-(1,3-dimethyl-1H-pyrazol-4-yl)-3H-imidazo[4,5-b]pyridine], the “change in form (XRPD peaks, spectra, unit cell)” value in series [5] (1,4-dioxane and lyophilisation conditions) was “no change in the characteristic XRPD peaks, spectra, or unit cell”.

As for `Cc1nn(C)cc1-c1nc2c(N3CCN(Cc4ccc(Cl)cc4)CC3)c(Cl)cnc2[nH]1` [Form 3, 6-chloro-7-(4-(4-chlorobenzyl)piperazin-1-yl)-2-(1,3-dimethyl-1H-pyrazol-4-yl)-3H-imidazo[4,5-b]pyridine], the “Concentration (thermodynamic solubility)” value in series [3] (FaSSGF pH 1.6, listed as Compound A fumarate form 3) is 2000 µg/mL; in series [3] (FaSSIF pH 6.5, listed as Compound A fumarate form 3), below 100 µg/mL; in series [3] (FeSSIF pH 5.0, listed as Compound A fumarate form 3), below 100 µg/mL. The solubility thermodynamic in series [3] (FaSSIF, pH 6.5, fassif, thermodynamic from solid, FaSSIF pH 6.5, read-out: Concentration (thermodynamic solubility)) is below 100 µg/mL. Besides, the “form change, hydration or dehydration after DVS (XRPD of recovered solids)” value in series [2] was “No evidence of hydration or dehydration”. Also, the “DVS uptake (weight increase)” value in series [2] (at 90% RH) is reported as “ca. 0.5 wt. %”. Besides, the “Purity (% area) after storage” value came to 99.5 % area in series [6] (40° C./75% RH (open vial)), 99.6 % area in series [6] (80° C. (closed vial)) and 99.6 % area in series [6] (setting [8]). In addition, the “XRPD form after storage” value in series [6] (40° C./75% RH (open vial)), in series [6] (80° C. (closed vial)) and in series [6] (setting [8]) was “Form 3” throughout. Moreover, in series [6] (all three storage conditions), the “changes in purity after storage” value is listed as “No changes in purity”. Moreover, the “visual changes after storage” value in series [6] (all three storage conditions) is on record as “No visual changes”. Moreover, the “change in form on handling in organic solvents (XRPD)” value (“change … in organic solvents (XRPD)” for short) in series [5] (dimethoxymethane, 2-MeTHF, water:MeOH, EtOAc, IPA, MEK, MIBK, THF, acetone, acetonitrile) was “without change in form”.

Consider `Cc1nn(C)cc1-c1nc2c(N3CCN(Cc4ccc(Cl)cc4)CC3)c(Cl)cnc2[nH]1` [Form 4, 6-chloro-7-(4-(4-chlorobenzyl)piperazin-1-yl)-2-(1,3-dimethyl-1H-pyrazol-4-yl)-3H-imidazo[4,5-b]pyridine], for which the “stability in organic solvents (XRPD)” value in series [5] (1,4-dioxane) is recorded as “stable”. Besides, the “form change on drying” value in series [5] (drying) is “converts to Form 2”.

`Cc1nn(C)cc1-c1nc2c(N3CCN(Cc4ccc(Cl)cc4)CC3)c(Cl)cnc2[nH]1` [Form 5, 6-chloro-7-(4-(4-chlorobenzyl)piperazin-1-yl)-2-(1,3-dimethyl-1H-pyrazol-4-yl)-3H-imidazo[4,5-b]pyridine]: in series [5] (benzyl alcohol), the “change … in organic solvents (XRPD)” value is “without any change in form”.

Consider `Cc1nn(C)cc1-c1nc2c(N3CCN(Cc4ccc(Cl)cc4)CC3)c(Cl)cnc2[nH]1` [Form 6, 6-chloro-7-(4-(4-chlorobenzyl)piperazin-1-yl)-2-(1,3-dimethyl-1H-pyrazol-4-yl)-3H-imidazo[4,5-b]pyridine], for which the “change in form on handling in solvent (XRPD)” value in series [5] (DMSO) is on record as “without any change in form”.

With `Cc1nn(C)cc1-c1nc2c(N3CCN(Cc4ccc(Cl)cc4)CC3)c(Cl)cnc2[nH]1` [Form 7, 6-chloro-7-(4-(4-chlorobenzyl)piperazin-1-yl)-2-(1,3-dimethyl-1H-pyrazol-4-yl)-3H-imidazo[4,5-b]pyridine], in series [2], the “hygroscopicity (in words)” value is “only slightly hygroscopic”. Besides, in series [5] (methanol and TBME), the “change … in organic solvents (XRPD)” value is “without any change in form”. For the same compound, the “stability under long term-storage conditions” value in series [7] is “stable”.

With `Cc1nn(C)cc1-c1nc2c(N3CCN(Cc4ccc(Cl)cc4)CC3)c(Cl)cnc2[nH]1` [Form 8, 6-chloro-7-(4-(4-chlorobenzyl)piperazin-1-yl)-2-(1,3-dimethyl-1H-pyrazol-4-yl)-3H-imidazo[4,5-b]pyridine], the “stability in organic solvents” value in series [5] (benzyl alcohol) is reported as “stable”.

Values taken from patent US12624027B2, “Salts and polymorphic forms of 6-chloro-7-(4-(4-chlorobenzyl)piperazin-1-yl)-2-(1,3-dimethyl-1H-pyrazol-4-yl)-3H-imidazo[4,5-b]pyridine” (ELLIPSES PHARMA LTD, priority 2020, dated 2026).
